The target in experiment [1] is 5HT1a receptor (Homo sapiens (Human), UniProt P08908). Description: Secondary radioligand binding assay, 5HT1a. Particulars: average of at least two experiments.
Experimental: (§1) Assay Buffer: Standard Binding Buffer (50 mM Tris-HCl, 10 mM MgCl2, 1 mM EDTA, pH 7.4)
(§2) Membrane Fraction Source: Transiently or stably transfected cell lines (e.g., HEK293, COS, CHO, NIH3T3)
Experiment [2] concerns the target 5HT2a receptor (Homo sapiens (Human), UniProt P28223). Description: Secondary radioligand binding assay, 5HT2a. The note with it: average of at least two experiments.
Experimental: as §1, §2
The target in experiment [3] is 5HT2c receptor (Homo sapiens (Human), UniProt P28335). Nature of the experiment: Secondary radioligand binding assay, 5HT2c. The note with it: average of at least two experiments.
Experimental: as §1, §2
The target in experiment [4] is dopamine D4 receptor (Homo sapiens (Human), UniProt P21917). Description: Secondary radioligand binding assay, D4. The note with it: receptor binding; average of at least two experiments; read-out: Ki D4. The procedure:
1. Secondary Radioligand Binding Assays
The detailed experimental protocols for the radioligand and functional receptor assays are available on the NIMH PDSP website at http://pdsp.med.unc.edu/UNC-CH %20Protocol %20Book.pdf.
Radioligand is diluted to five times the assay concentration (see Table 18) in Standard Binding Buffer. Typically, the assay concentration of radioligand is a value between one half the KD and the KD of a particular radioligand at its target. 50 μl aliquots of radioligand are dispensed into the wells of a 96-well plate containing 100 μl of Standard Binding Buffer. Then, duplicate 50 μl aliquots of the test and reference compound dilutions are added.
The 250 μl reactions are incubated at room temperature and shielded from light (to prevent photolysis of light-sensitive ligands) for 1.5 hours, then harvested by rapid filtration onto Whatman GF/B glass fiber filters pre-soaked with 0.3% polyethyleneimine using a 96-well Brandel harverster. Four rapid 500 μl washes are performed with chilled Standard Binding Buffer to reduce non-specific binding. Filters are placed in 6 ml scintillation tubes and allowed to dry overnight. The next day, 4 ml of EcoScint scintillation cocktail (National Diagnostics) are added to each tube. The tubes are capped, labeled, and counted by liquid scintillation counting. […] The filter mats are dried, then scintillant is melted onto the filters and the radioactivity retained on the filters is counted in a Microbeta scintillation counter.
Raw data (dpm) representing total radioligand binding (i.e. specific+non-specific binding) are plotted as a function of the logarithm of the molar concentration of the competitor (i.e. test or reference compound).
B. Dopamine Receptors: D1, D2, D3, D4, D5 Assay Buffers: Dopamine Binding Buffer (50 mM NaCl, 50 mM HEPES-HCl, 5 mM MgCl2, 0.5 mM EDTA, pH 7.4) Membrane Fraction Source: Transiently or stably transfected cell lines (e.g. HEK293, COS, CHO, NIH3T3)
The method is carried out in the manner described for the serotonin receptor assay above. Eleven dilutions (5× assay concentration) of the test and reference (see Table 19) compounds are prepared in Dopamine Binding Buffer by serial dilution, as previously described. Radioligand is diluted to five times the assay concentration (see Table 20) in Dopamine Binding Buffer.

Molecules are shown by their SMILES. Structures can show the parent of a compound that is named as a salt.

What is called Ki is a measure of affinity in units of concentration, obtained from inhibition or displacement.

Sequence of 5HT2a receptor (P28223 whole entry): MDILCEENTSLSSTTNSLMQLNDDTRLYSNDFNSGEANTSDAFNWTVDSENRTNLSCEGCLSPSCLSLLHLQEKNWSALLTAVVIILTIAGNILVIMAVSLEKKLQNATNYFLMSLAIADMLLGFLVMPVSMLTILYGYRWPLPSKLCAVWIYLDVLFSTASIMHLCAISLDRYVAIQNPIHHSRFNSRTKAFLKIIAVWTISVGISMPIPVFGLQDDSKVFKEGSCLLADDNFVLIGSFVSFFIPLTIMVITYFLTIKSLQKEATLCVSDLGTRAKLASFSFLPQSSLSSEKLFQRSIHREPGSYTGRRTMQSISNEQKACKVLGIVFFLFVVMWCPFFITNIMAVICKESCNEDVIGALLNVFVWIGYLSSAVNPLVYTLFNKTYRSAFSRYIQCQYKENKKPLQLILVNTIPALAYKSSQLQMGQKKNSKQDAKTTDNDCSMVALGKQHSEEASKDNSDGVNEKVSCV
Sequence of 5HT2c receptor (P28335 33-458): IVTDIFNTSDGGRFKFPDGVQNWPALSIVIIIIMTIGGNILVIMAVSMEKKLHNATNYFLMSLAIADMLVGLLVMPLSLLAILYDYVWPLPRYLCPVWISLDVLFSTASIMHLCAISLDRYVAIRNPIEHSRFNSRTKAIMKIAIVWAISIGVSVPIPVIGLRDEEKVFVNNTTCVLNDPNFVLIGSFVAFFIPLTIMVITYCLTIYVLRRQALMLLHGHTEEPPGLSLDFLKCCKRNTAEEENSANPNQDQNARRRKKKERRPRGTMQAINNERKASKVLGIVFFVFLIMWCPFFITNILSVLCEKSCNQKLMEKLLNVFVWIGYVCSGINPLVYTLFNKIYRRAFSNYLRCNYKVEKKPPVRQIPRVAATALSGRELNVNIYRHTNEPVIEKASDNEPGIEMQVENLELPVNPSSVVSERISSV
Sequence of 5HT1a receptor (P08908 whole entry): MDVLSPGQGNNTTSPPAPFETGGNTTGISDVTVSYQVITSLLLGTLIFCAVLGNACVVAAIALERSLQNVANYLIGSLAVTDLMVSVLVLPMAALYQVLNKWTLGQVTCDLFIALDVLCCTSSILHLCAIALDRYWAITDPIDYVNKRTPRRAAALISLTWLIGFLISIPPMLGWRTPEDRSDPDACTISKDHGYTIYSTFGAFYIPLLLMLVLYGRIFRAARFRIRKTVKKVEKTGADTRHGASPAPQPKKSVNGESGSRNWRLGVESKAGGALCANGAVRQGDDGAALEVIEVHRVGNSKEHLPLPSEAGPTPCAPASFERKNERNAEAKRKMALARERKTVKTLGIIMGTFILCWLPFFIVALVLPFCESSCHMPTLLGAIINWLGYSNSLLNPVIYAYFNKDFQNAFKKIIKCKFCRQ
Sequence of dopamine D4 receptor (P21917 whole entry, species assumed): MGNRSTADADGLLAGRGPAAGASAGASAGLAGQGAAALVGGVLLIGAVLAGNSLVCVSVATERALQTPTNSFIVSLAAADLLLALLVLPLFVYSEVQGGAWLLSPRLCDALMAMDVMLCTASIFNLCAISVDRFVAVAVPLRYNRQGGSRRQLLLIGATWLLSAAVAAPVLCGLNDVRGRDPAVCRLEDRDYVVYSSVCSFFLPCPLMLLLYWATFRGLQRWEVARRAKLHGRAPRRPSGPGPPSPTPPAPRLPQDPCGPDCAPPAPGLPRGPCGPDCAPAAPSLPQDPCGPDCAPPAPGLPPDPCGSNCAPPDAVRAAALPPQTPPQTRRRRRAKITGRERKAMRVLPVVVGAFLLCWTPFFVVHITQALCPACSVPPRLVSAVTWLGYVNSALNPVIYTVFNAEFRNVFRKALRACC

With `COc1cccc(OC[C@H]2CN(CCN3CCc4ccccc43)CCO2)c1` [Compound 25r, (R)-4-(2-(Indolin-1-yl)ethyl)-2-((3-methoxyphenoxy)methyl)morpholine], the Ki in experiment [1] was 1470 nM; in experiment [2], 3780 nM.

Turning to `Fc1ccc(OC[C@@H]2CN(CCN3CCc4ccccc43)CCO2)cc1` [Compound 32s, (S)-2-((4-fluorophenoxy)methyl)-4-(2-(indolin-1-yl)ethyl)morpholine hydrochloride], the inhibitory constant (Ki) in experiment [3] came to 1110 nM; in experiment [2], 374 nM; in experiment [4] it was 3930 nM.

The values are drawn from patent US9079895B2, “Morpholino compounds, uses and methods” (University of Dundee, priority 2012, dated 2015).
